Numbers after ± are expanded uncertainties.
Experiments:
[1] = osmotic coefficient (dimensionless); mn = molality of the nth substance listed, in mol/kg; conditions: 323.15 K, Liquid, Vapor Pressure Osmometer
[2] = mn = molality of the nth substance listed, in mol/kg; conditions: 101.3 kPa, Liquid; for speed of sound: Sing-around technique in a fixed-path interferometer; for mass density: Vibrating tube method

CCCCn1cc[n+](C)c1.N#CN=C=[N-] [1-butyl-3-methylimidazolium dicyanamide] + CCC(C)O
[1]
Conditions	osmotic coefficient
m1 = 0.0525	0.893 ± 0.013
m1 = 0.0792	0.826 ± 0.014
m1 = 0.0995	0.811 ± 0.014
m1 = 0.2159	0.76 ± 0.015
m1 = 0.3148	0.715 ± 0.016
m1 = 0.4003	0.687 ± 0.016
m1 = 0.5143	0.653 ± 0.017
m1 = 0.8478	0.592 ± 0.019
m1 = 1.241	0.556 ± 0.02
m1 = 1.639	0.538 ± 0.02
m1 = 2.038	0.524 ± 0.021
m1 = 2.439	0.517 ± 0.021
m1 = 2.842	0.502 ± 0.021
m1 = 3.307	0.492 ± 0.022

[2]
Conditions	mass density, 293.15 K [kg/m3]	mass density, 308.15 K [kg/m3]	mass density, 323.15 K [kg/m3]	speed of sound, 293.15 K [m/s]	speed of sound, 308.15 K [m/s]	speed of sound, 323.15 K [m/s]
m1 = 0.0516	809.04 ± 0.12	796.59 ± 0.12	783.23 ± 0.13	1234.5 ± 0.9	1180.7 ± 0.9	1125.7 ± 0.8
m1 = 0.1009	811.17 ± 0.12	798.81 ± 0.12	785.57 ± 0.13	1238.1 ± 0.9	1184.9 ± 0.9	1130.4 ± 0.8
m1 = 0.1501	813.3 ± 0.12	801.01 ± 0.12	787.88 ± 0.13	1241.8 ± 0.9	1188.8 ± 0.9	1134.6 ± 0.9
m1 = 0.2081	815.7 ± 0.12	803.5 ± 0.12	790.47 ± 0.13	1246 ± 0.9	1193.3 ± 0.9	1139.5 ± 0.9
m1 = 0.2579	817.76 ± 0.12	805.61 ± 0.12	792.68 ± 0.13	1249.3 ± 0.9	1197.1 ± 0.9	1143.6 ± 0.9
m1 = 0.5079	827.23 ± 0.12	815.35 ± 0.13	802.8 ± 0.1	1265.7 ± 0.9	1214.4 ± 0.9	1162.3 ± 0.9
m1 = 0.7631	836.25 ± 0.13	824.57 ± 0.13	812.32 ± 0.13	1281.1 ± 1	1230.8 ± 0.9	1179.8 ± 0.9
m1 = 1.016	844.37 ± 0.13	832.86 ± 0.14	820.86 ± 0.14	1295.3 ± 1	1245.9 ± 1	1195.9 ± 1
m1 = 1.267	851.96 ± 0.14	840.59 ± 0.14	828.79 ± 0.14	1308.6 ± 1	1260 ± 1	1210.9 ± 1
m1 = 1.517	858.95 ± 0.14	847.71 ± 0.15	836.09 ± 0.15	1321.1 ± 1.1	1273 ± 1.1	1224.8 ± 1
m1 = 1.782	865.94 ± 0.15	854.81 ± 0.16	843.35 ± 0.16	1333.7 ± 1.1	1286.2 ± 1.1	1238.7 ± 1.1
m1 = 1.95	870.16 ± 0.16	859.09 ± 0.16	847.71 ± 0.16	1341.3 ± 1.1	1294.2 ± 1.1	1247 ± 1.1
m1 = 2.523	883.17 ± 0.18	872.28 ± 0.18	861.18 ± 0.18	1365.1 ± 1.2	1319.1 ± 1.2	1273.2 ± 1.2
m1 = 3.56	902.51 ± 0.22	891.67 ± 0.22	880.92 ± 0.22	1401.6 ± 1.3	1356.4 ± 1.3	1312.5 ± 1.3

Source: the NIST ThermoML archive (doi:10.1016/j.jct.2012.02.007)
